“And” between values parts separate entries of the source, which are not always exact repeats. Equal values may be shown once. No end group written: not given here.
How the values were obtained:
TNC-C = biological target: T1, TNC-C (Homo sapiens, UniProt P24821); assay: Individual peptide-phage binding to TNC-C; settings: individual peptide phages
T1 construct: made in house; host or cells: E. coli BL21 Rosetta 2 (DE3) pLysS
T1 sequence (P24821 with tags, fused parts or gaps): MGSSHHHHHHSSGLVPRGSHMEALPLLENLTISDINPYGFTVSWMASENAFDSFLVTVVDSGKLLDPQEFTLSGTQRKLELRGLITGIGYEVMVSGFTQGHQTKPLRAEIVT

P13 tumor = settings: i.v. equimolar mix, 2 h circulation
Excerpt: (§1) In vivo play-off was used to evaluate systemic homing of peptide phage to xenograft tumor models. The in vitro selected candidate TNC-C binding peptides, phages displaying published tumor homing peptides, and control peptides were amplified and purified by precipitation with PEG-8000 (Sigma-Aldrich, St. Louis, MO, USA), followed by CsCl2 gradient ultracentrifugation and dialysis. The amplified phage peptides were pooled in equimolar quantities, and injected intravenously (final 1×10^10 pfu in 200 μl PBS) in tumor-bearing mice for two hour circulation, after which mice were anesthetized with 2.5% avertin and intracardially perfused with DMEM intracardially. The tumors and organs were collected in lysogeny broth (LB)+1% NP40, and the tissues were homogenized using a hand-held homogenizer for phage peptide rescue. Phages in the tissue lysates were amplified in E. coli, purified by precipitation with PEG-8000 and DNA was extracted using a DNA extraction kit (High Pure PCR Template Preparation Kit; Roche, Basel, Switzerland). Next-generation sequencing of phage genomic DNA evaluated the representation of each phage in input mixture, in tumor and control organs with Ion Torrent system (Thermo Fisher Scientific, Waltham, MA, USA). The next generation deep sequencing of phage library was done using Ion Torrent according to the manufacturer's protocol with slight modification. The FASTQ data from Ion Torrent was processed by a custom python script that identified the barcodes, constant flanking residues, and extracted the reads of the correct length.

P3 stem cell-like tumor = settings: i.v. equimolar mix, 2 h circulation
Excerpt: as §1

[1] = tested on: PC3 prostate carcinoma xenografts; settings: i.v. equimolar mix, 2 h circulation
Excerpt: as §1

U87-MG glioblastoma = settings: i.v. equimolar mix, 2 h circulation
Excerpt: as §1

WT-GBM tumor = settings: i.v. equimolar mix, 2 h circulation
Excerpt: as §1

normal brain = settings: i.v. equimolar mix, 2 h circulation
Excerpt: as §1

[2] = Zeta potential and size of iron oxide nanoworms by DLS; format: physicochemical; settings: n = 3
Protocol: The concentration of the NWs was determined by constructing a calibration curve with iron oxide and measuring the absorbance of NWs at 400 nm with a NanoDrop 2000c spectrophotometer (Thermo Scientific). The concentration measurements were confirmed by ICP-MS. Transmission electron microscopy (TEM, Tecnai 10, Philips, Netherlands) was used to image the nanoparticles. Dynamic Light Scattering (DLS; Zetasizer Nano ZS, Malvern Instruments, UK) was used to assess the zeta potential, polydispersity and size of NWs.

[3] = tested on: orthotopic NCH421K glioblastoma xenografts; assay: Systemic NW tumor homing, FAM signal by confocal microscopy; format: in vivo, mice; settings: NCH421K tumors, 7.5 mg/kg i.v., 5 h
Protocol: For NW biodistribution studies, NWs (7.5 mg/kg) in PBS were injected into the tail vein of the tumor-bearing mice, followed by cardiac perfusion with 20 ml PBS/DMEM before collection tumor and control organs for imaging. In control experiments, NW injection was preceded by systemic pre-injection of blocking FN-EDB and/or TNC-C antibodies (30 μg/mouse) 15 min prior to injection of the NWs.
Snap-frozen 10 μm tumor cryosections were mounted on Superfrost™^+ slides. The sections were equilibrated at RT and fixed with 4% paraformaldehyde/methanol and permeabilized with PBST (PBS+0.05% Tween 20), blocked with PBST, 5% BSA, 5% goat serum (GE Healthcare, Little Chalfont, UK) at RT for 30 min, followed by primary antibody incubation at RT for 1 h. […] The coverslips were mounted on glass slides with Fluoromount-G (Electron Microscopy Sciences, PA, USA), imaged using confocal microscopy (Olympus FV1200MPE, Tokyo, Japan) and analyzed using the FV10-ASW4.2 viewer, Imaris software and ImageJ freeware.

[4] = tested on: orthotopic WT-GBM glioblastoma; assay: as above; format: in vivo, mice; settings: WT tumors, 7.5 mg/kg i.v., 5 h
Protocol: (§2) FAM-labeled PL2 peptide coupled NW or control FAM-NW (7.5 mg/kg) in PBS were injected into the tail vein of the subcutaneous U87, PC3, and orthotropic WT-GBM tumor mice. Five h after circulation, the tumor and organs were collected by cardiac perfusion of mice with 20 ml PBS/DMEM under deep anesthesia. Tissues were imaged under an Illuminatool Bright Light System LT-9900 (Lightools Research, Encinitas, CA, USA) before Snap-frozen. The frozen tissues were cryosectioned 8-10 μm and mounted on a superfrost+ slides. The sections were equilibrated at RT and fixed with 4% paraformaldehyde/methanol. The immunostaining performed with following primary antibodies; rabbit anti-fluorescein IgG fragment (cat. no. A889, Thermo Fisher Scientific, MA, USA), rat anti-mouse CD31 (BD Biosciences, CA, USA), and in-house prepared CF647 or CF546-labeled single chain antibodies ScFV G11, for secondary antibodies; Alexa 488 goat anti-rabbit IgG, Alexa 647 goat anti-rat IgG, and Alexa 546 goat anti-mouse IgG, were from Invitrogen, CA, USA. Nuclei were counterstained with 4′,6-diamidino-2-phenylindole (DAPI, Molecular Probes) at one 1 μg/ml. The coverslips were mounted onto glass slides with Fluoromount-G (Electron Microscopy Sciences, PA, USA) imaged using confocal microscopy (Olympus FV1200MPE, Hamburg, Germany), and analyzed using the FV10-ASW4.2 viewer/Imaris software/Fiji ImageJ.

[5] = tested on: PC3 prostate carcinoma xenografts; assay: as above; format: in vivo, mice; settings: PC3 tumors, 7.5 mg/kg i.v., 5 h
Protocol: as §2

orthotopic NCH421K GBM = assay: Magnetic resonance imaging of NW-injected mice; format: in vivo
Protocol: For MRI, nude mice bearing orthotopic NCH421k GBM were i.v. injected with iron oxide nanoworms at 5 mg/kg. Five hours after NW injection, the mice were anesthetized with isoflurane and subjected to MRI using a 9.4 Tesla BioSpec 94/21 (Bruker BioSpin MRI GmbH, Ettlingen, Germany) equipped with ParaVision Acquisition 6.0.1 software (Bruker, Ettlingen, Germany). Following intravital MRI, the animals were perfused with PBS to remove blood and background circulating NWs and subjected to postmortem MRI. After imaging, tumors and control tissues were harvested and sectioned for immunofluorescence staining. Mice received isoflurane in oxygen mix (1.5%, flow rate of 200 ml/min) for anesthesia; the body temperature and breathing rate were monitored throughout the experiments. T2* map MGE (Multiple Gradient Echo) sequences were acquired in sagittal and coronal orientations. The following parameters were used during the data acquisition: slice thickness −0.375 mm (3 slices averaged offline for improved signal/noise ratio); inter-slice gap −0.375 mm; repetition time −800; Echo time ˜3.5-38.5 ms; flip angle ˜50°; axial slices ˜128, pixel bandwidth ˜292.9; imaging frequency ˜400.3; matrix ˜256×256, and magnetic field strength ˜9.4. To calculate T2 relaxation times, regions of interest (ROIs) were drawn manually on the images by using image sequence analysis (ISA) tool package (Paravision 5, Bruker) using T2vtr fit function y=A+C*exp (−t/T2) (A=Absolute bias, C=signal intensity, T2=spin-spin relaxation time) for T2 evaluation. To calculate mean signal intensity in the tumor to a reference region, ROIs were drawn manually on the images at given echo time (TE). Experiments were repeated in triplicate.

s.c. U87MG tumors = assay: Experimental tumor therapy; format: in vivo, mice
Protocol: U87MG cells (4×10^6) in 100 μl PBS were implanted subcutaneously into the right flank of 11-15 week old male nude mice. The weight of animals and tumor volume [length×(width×width)/2] was recorded on every other day until tumor volume reached −100 mm^3. Animals were randomized into 4 groups (PBS, FAM-D[KLAKLAK]2-NWs, FAM-PL1-NWs, and FAM-PL1-D[KLAKLAK]2-NWs; 8 mice/group). 100 μl of NWs (at 5 mg/kg body weight of iron) or PBS was intravenously injected into the tail vein every other day for ten injections. Tumor size, body weight, survival, and behavior were recorded during treatment and post-therapy. When the tumor volume reached 2000 mm^3 (or >10% body weight), the mice were sacrificed, and organs and tumors were excised, macroscopically observed and snap frozen. Tumor volume, Kaplan-Meier survival and body weight curves were calculated using the GraphPad Prism 6 software with p-values <0.05 considered significant. For experimental therapy on intracranially-implanted NCH421k GBM, 32 tumor mice were randomized into 4 groups 3 days after the tumor implantation. […] Tumor size, body weight, survival, and behavior were recorded during and post-treatment. Kaplan-Meier survival and body weight curves were calculated using GraphPad Prism 6 and P values <0.05 were considered significant.

[6] = tested on: intracranially-implanted NCH421k GBM; assay: Experimental tumor therapy; format: in vivo, mice; set-up: percent of the surviving mice: concentration or dose not given beside the values
Protocol: U87MG cells (4×10^6) in 100 μl PBS were implanted subcutaneously into the right flank of 11-15 week old male nude mice. The weight of animals and tumor volume [length×(width×width)/2] was recorded on every other day until tumor volume reached −100 mm^3. Animals were randomized into 4 groups (PBS, FAM-D[KLAKLAK]2-NWs, FAM-PL1-NWs, and FAM-PL1-D[KLAKLAK]2-NWs; 8 mice/group). 100 μl of NWs (at 5 mg/kg body weight of iron) or PBS was intravenously injected into the tail vein every other day for ten injections. Tumor size, body weight, survival, and behavior were recorded during treatment and post-therapy. When the tumor volume reached 2000 mm^3 (or >10% body weight), the mice were sacrificed, and organs and tumors were excised, macroscopically observed and snap frozen. Tumor volume, Kaplan-Meier survival and body weight curves were calculated using the GraphPad Prism 6 software with p-values <0.05 considered significant. For experimental therapy on intracranially-implanted NCH421k GBM, 32 tumor mice were randomized into 4 groups 3 days after the tumor implantation. 100 μl of the PBS or PBS containing FAM-D[KLAKLAK]2-NWs, FAM-PL1-NWs and FAM-PL1-D[KLAKLAK]2-NWs (5 mg/kg body weight of iron; SEQ ID NO:6) were injected i.v. every other day for 10 total injections. Tumor size, body weight, survival, and behavior were recorded during and post-treatment. Kaplan-Meier survival and body weight curves were calculated using GraphPad Prism 6 and P values <0.05 were considered significant.

clinical GBM samples = assay: NW overlay assay on clinical GBM cryosections; set-up: species or system human; settings: confocal imaging
Protocol: Fresh surgical GBMs ([…]) were snap-frozen in liquid nitrogen, cryosectioned at 8 μm, fixed with methanol, and permeabilized with TBS followed by blocking buffer containing 5% BSA, 5% goat serum and 5% FBS in TBS. For overlay, the sections were incubated with […] of PL1-NW or NW at 4° C. overnight. The sections were washed and blocked with blocking buffer, followed by immunostaining using rabbit anti-fluorescein primary antibodies and detection with the Alexa-488 anti-rabbit secondary antibody. FN-EDB and TNC-C were detected by fluorescently labeled single-chain antibodies ScFV L19 FN-EDB-CF647 and ScFV G11 TNC-C-CF555.

[7] = tested on: Ad-VEGF-A164-induced angiogenic vessels; settings: adenovirus-injected ear, 7.5 mg/kg i.v., 24 h
Protocol: Angiogenesis was induced by injecting 2.5×10^8 PFU of an adenoviral vector driving expression of mouse VEGF^164 (Ad-VEGF^164) intradermally into the left ear of 7-8 week-old female nude mice (Nagy et al., Methods Enzymol. 444:43-64 (2008)). The right ear served as a control. PL1-NW or NW (at 7.5 mg/kg) were i.v. injected 4 days after induction of angiogenesis and 24 h before intravital imaging. Texas Red/Evans Blue was i.v. injected at 30 mg/kg to allow visualization of blood vessels. The ear was fixed on the coverslip for imaging using a veterinary-grade glue tape, and a mold was prepared around the ear from agarose for imaging. The body temperature was maintained throughout the experiment with a heat mat. Images and videos were acquired at an excitation wavelength of 920 nm, optical sections were taken under identical conditions, and experiments were repeated in triplicates.

[8] = tested on: s.c. U87MG glioblastoma xenografts; assay: Systemic NW tumor homing, FAM signal by confocal microscopy; settings: U87MG tumors, 7.5 mg/kg i.v., 5 h
Protocol: as §2

Substance: AVRGRLRVAKLAAALE
- TNC-C binding (fold G7 control phage) (TNC-C): 5333 fold and 7111 fold
- Representation of phage in tumors (fold G7 control phage), P13 (P13 tumor): 0.6 fold
- Representation of phage in tumors (fold G7 control phage), P3 SCL (P3 stem cell-like tumor): 0.6 fold
- Representation of phage in tumors (fold G7 control phage), PC3 [1]: 1.0 fold
- Representation of phage in tumors (fold G7 control phage), U87-MG (U87-MG glioblastoma): 0.8 fold
- Representation of phage in tumors (fold G7 control phage), WT-GBM (WT-GBM tumor): 1.3 fold
- Representation of phage in control brain tissue (fold G7 control phage), Norm. brain (normal brain): 0.1 fold

Substance: PL1-NW: iron oxide nanoworms coated with FAM-labeled PL1 peptide (CPPRRGLIKLKTS; not fully specified (residue 1); also: FAM label)
- Zeta Potential [2]: −10.3 ± 0.7 mV
- increase in NW accumulation compared to non-targeted NWs [3]: 8.8 fold
- increase in NW accumulation compared to non-targeted NWs [4]: 3.3 fold
- increase in NW accumulation compared to non-targeted NWs [5]: 4.7 fold
- decrease of T2* relaxation time within the tumor (orthotopic NCH421K GBM; 5 mg/kg iron i.v.): 27-36%
- T2* relaxation time within the tumor (orthotopic NCH421K GBM; after NW injection, first value (post-scan, 5 h)): 17 ± 1 ms
- T2* relaxation time within the tumor (orthotopic NCH421K GBM; after NW injection, second value (perfused)): 14 ± 4 ms
- T2* relaxation time within the tumor (orthotopic NCH421K GBM; before NW injection (pre-scan)): about 23±2 ms
- Median survival (s.c. U87MG tumors; U87MG, Kaplan-Meier): 39 days
- percent of the surviving mice (s.c. U87MG tumors; U87MG, day 0): 100%
- percent of the surviving mice (s.c. U87MG tumors; U87MG, day 29): 88%
- percent of the surviving mice (s.c. U87MG tumors; U87MG, day 31): 75%
- percent of the surviving mice (s.c. U87MG tumors; U87MG, day 33): 75%
- percent of the surviving mice (s.c. U87MG tumors; U87MG, day 35): 63%
- percent of the surviving mice (s.c. U87MG tumors; U87MG, day 37): 63%
- percent of the surviving mice (s.c. U87MG tumors; U87MG, day 39): 38%
- percent of the surviving mice (s.c. U87MG tumors; U87MG, day 41): 25%
- percent of the surviving mice (s.c. U87MG tumors; U87MG, day 43): 25%
- percent of the surviving mice (s.c. U87MG tumors; U87MG, day 45): 13%
- percent of the surviving mice (s.c. U87MG tumors; U87MG, day 49): 13%
- percent of the surviving mice (s.c. U87MG tumors; U87MG, day 57): 0%
- tumor growth (s.c. U87MG tumors; s.c. U87MG, i.v. every other day, 10 injections, 5 mg/kg iron): only a slight reduction in tumor growth
- Median survival ([6]; Kaplan-Meier): 42 days
- percent of the surviving mice ([6]; day 0): 100%
- percent of the surviving mice ([6]; day 32): 100%
- percent of the surviving mice ([6]; day 37): 75%
- percent of the surviving mice ([6]; day 38): 62.5%
- percent of the surviving mice ([6]; day 39): 62.5%
- percent of the surviving mice ([6]; day 40): 62.5%
- percent of the surviving mice ([6]; day 41): 62.5%
- percent of the surviving mice ([6]; day 42): 37.5%
- percent of the surviving mice ([6]; day 43): 25%
- percent of the surviving mice ([6]; day 44): 0%
- binding to clinical GBM cryosections (clinical GBM samples): showed binding to all human GBM samples tested
- increase in accumulation in angiogenic vessels relative to nontargeted NWs [7]: ~3 fold
- increase in NW accumulation compared to non-targeted NWs [8]: 5 fold
